In patent US20140234868A1, “USE FOR GLYCOLIPOPROTEIN GINTONIN, ISOLATED AND IDENTIFIED FROM GINSENG, AS A NATURAL MEDICAL-PLANT DERIVED LIGAND” (KONKUK UNIVERSITY INDUSTRIAL COOPERATION CORP., priority 2011, published 2014):

What was measured:
[1] = test system: NMDA receptors (NR1 and NR2); assay: NMDA receptor activity in Xenopus oocytes, two-electrode voltage clamp; assay type: cell-based; settings: gintonin 1 μg/ml; Kil6425 10 μM; U73122, U73343 1 μM; 2-APB 100 μM; BAPTA 100 μM 3 h; genistein 10 μM; PP2, PP3 30 μM
Method: cDNAs of NMDA receptor subunits (NR1 and NR2) were employed (Zheng et al., J Neurosci. 17, 8676-8686, 1997). cDNAs (100 ng/40 nl) corresponding to respective NMDA receptor subunits (NR1 and NR2) were injected into animal or vegetal poles of oocytes by use of a […] (VWR Scientific, USA) and incubated for 4-5 days after injection (Zheng et al., J Neurosci. 17, 8676-8686, 1997).
(§1) Xenopus laevis frogs were obtained from Xenopus I (Ann Arbor, Mich.). Their care and handling were in accordance with the highest standards of institutional guidelines. To isolate oocytes, the frogs were operated on under anesthesia with an aerated solution of 3-aminobenzoic acid ethyl ester. Oocytes were separated by treatment with collagenase and agitation for two hours in a Ca^2+-free medium containing 82.5 mM NaCl, 2 mM KCl, 1 mM MgCl2, 5 mM HEPES, 2.5 mM sodium pyruvate, 100 units/ml penicillin and 100 μg/ml streptomycin.
Stage V-VI oocytes were collected and stored in ND96 (96 mM NaCl, 2 mM KCl, 1 mM MgCl2, 1.8 mM CaCl2, and 5 mM HEPES, pH 7.4) supplemented with 50 μg/ml gentamicin. This oocyte containing solution was maintained at 18° C. with continuous gentle shaking while the ND96 medium was changed to a fresh one every day.
Two-electrode voltage-clamp recordings were obtained from individual oocytes placed in a small Plexiglas net chamber (5 ml). Electrophysiological experiments were performed using microelectrodes filled with 3 M KCl (resistance of 0.2-0.7 MΩ) and an Oocyte Clamp amplifier (OC-725C; Warner Instrument, Hamden, Conn.). For physiological recordings of NMDA receptor activity, oocytes were first perfused with Mg^2+-free ND96 (mM: 96 NaOH, 2 KOH, 0.3 CaCl2, 5 HEPES pH 7.6 with methanesulfonic acid). Then, the oocytes were clamped at −60 mV holding potential, followed by recoding NMDA currents (induced by administering […]) (Zheng et al., J Neurosci. 17, 8676-8686, 1997; Chang and Kuo, J Neurosci. 28, 1546-1556, 2008).

BKCaK+ channels = assay: BKCa K+ channel activity in Xenopus oocytes, two-electrode voltage clamp; assay type: cell-based; settings: Kil6425 10 μM; U73122, U73343 1 μM; 2-APB 100 μM; BAPTA-AM; PMA 1 μM
Method: as §1
Stage V-VI oocytes were collected and stored in ND96 (96 mM NaCl, 2 mM KCl, 1 mM MgCl2, 1.8 mM CaCl2, and 5 mM HEPES, pH 7.4) supplemented with 50 μg/ml gentamicin. This oocyte containing solution was maintained at 18° C. with continuous gentle shaking while the ND96 medium was changed with a fresh one every day.
Two-electrode voltage-clamp recordings were obtained from individual oocytes placed in a small Plexiglas net chamber (5 ml). Electrophysiological experiments were performed using microelectrodes filled with 3 M KCl (resistance of 0.2-0.7 MΩ) and an Oocyte Clamp amplifier (OC-725C; Warner Instrument, CT, USA) to record BKc K^+ channel activity at room temperature (Choi et al., Mol Cells 31, 133-140, 2011). For physiological recordings of BKCaK^+ channel activity, oocytes were first perfused with a Cl^−- and Ca^2+-free solution (mM: 96 NaOH, 2 KOH, 8 Mg-gluconate, 5 HEPES, 5 EGTA, pH 7.4 with methanesulfonic acid) supplemented with 500 μM anthracene-9-carboxylic acid, a Cl^− channel blocker, to block endogenous Cl-channels (Lu et al., J. Biol. Chem. 265, 16190-16194.1990). Then, the oocytes were clamped at −80 mV holding potential, followed by step depolarization from the holding potential to +40 mV at regular intervals of […] for 400 ms to record outward currents.

mice = assay: Busulfan-caused diarrhea and mucositis in mice; assay type: in vivo, mouse; settings: busulfan 40 mg/kg i.p.; for Diarrhea (cases / mice) / Mucositis (cases / mice): gintonin 100 mg/kg oral 3 days before, observed 10 days
Method: In this Example, an examination was made of the inhibitory activity of gintonin against chemotherapy-induced diarrhea and mucositis. For this, gintonin-treated mice were administered with busulfan, and observed for diarrhea and mucostitis.
Briefly, mice were orally administered at a dose of 100 mg/kg with gintonin 3 days before intraperitoneal injection with busulfan (40 mg/kg). For the control, physiological saline was used, instead of gintonin.

COc1ccc2c(c1)CC[C@@H]1[C@@H]2CC[C@]2(C)[C@@H](NCCCCCCN3C(=O)CCC3=O)CC[C@@H]12 [U73343]
effect on gintonin-induced NMDA receptor activation [1]: did not block gintonin-induced NMDA receptor activation
effect on gintonin-induced BKCaK+ channel activation (BKCaK+ channels): did not block gintonin-induced BKCaK^+ channel activation

O=c1c(-c2ccc(O)cc2)coc2cc(O)cc(O)c12 [Genistein]
effect on gintonin-induced NMDA receptor activation [1]: inhibit gintonin-induced NMDA receptor activation

Nc1ncnc2c1cnn2-c1ccccc1 [PP3]
effect on gintonin-induced NMDA receptor activation [1]: did not show inhibitory activity

CC(C)(C)n1nc(-c2ccc(Cl)cc2)c2c(N)ncnc21 [PP2]
effect on gintonin-induced NMDA receptor activation [1]: blocked the action of gintonin

CS(=O)(=O)OCCCCOS(C)(=O)=O [Busulfan, busulfan, reference compound]
diarrhea morbidity rate (mice; gintonin 100 mg/kg oral): 53.3%
perianal mucositis morbidity (mice; gintonin 100 mg/kg oral): 46.7%
Diarrhea (cases / mice) (mice): 8/15
Mucositis (cases / mice) (mice): 7/15
Mucositis (cases / mice) (mice; listed as bufulfan): 7
Diarrhea (cases / mice) (mice; listed as busulfan): 8
